Holding throughout (format): cell-based
The target of data set [1] is T1, Nav 1.7 (Homo sapiens (Human), UniProt Q15858). The data set is described as follows: Nav 1.7 in vitro PX assay, PatchXpress whole cell voltage clamp. The conditions noted are these: HEK 293 cells stably transfected with human Nav1.7; for IC50: partially inactivated state (20 to 50% inactivation); for inhibition at 4.9 µM: HEK293, values marked *, read-out: Nav 1.7 PX percent inhibition at 4.9 μM. The method, boiled down: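 Partially inactivated channels (20–50% inactivation at holding potential) were probed on automated patch clamp in stably transfected HEK293 cells, stepping to −10 mV for 20 msec every 10 s (0.1 Hz).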

The target in data set [2] is T1, Nav 1.7. Put plainly: Nav 1.7 in vitro assay, IonWorks Quattro (IWQ) population patch-clamp. The conditions noted are these: HEK 293 cells stably transfected with Nav 1.7; 26th pulse to -20 mV. How it is done:
Nav 1.7 and Nav 1.5 In Vitro Assays
HEK 293 cells stably transfected with either Nav 1.7 or with Nav 1.5 were recorded in population patch-clamp mode with the IonWorks® Quattro automated electrophysiology system in accordance with the manufacturer's specifications (Molecular Devices, LLC, Sunnyvale, Calif.). Sodium channel currents were measured in response to a train of depolarizations that induced successively greater inactivation.
Cells were held at −110 mV for three seconds (Nav 1.7) or half a second (Nav 1.5) from a holding voltage of −15 mV, then put through a series of 26 pulses of 150 msec duration to −20 mV at a frequency of 5 Hz. Cells were then left unclamped for a period of 3 to 8 minutes while a single concentration of test compound was added. Cells were then reclamped and put through the same voltage protocol. Current at the end of the 26th pulse to −20 mV was subtracted from the peak current evoked by the 26th pulse to −20 mV to correct for leak current. Percent block was calculated for each concentration in duplicate, and IC50 curves were fitted to percent block as a function of concentration.

The target in a further data set is Nav 1.5 (Homo sapiens (Human), UniProt Q14524). The data set is described as follows: Nav 1.5 in vitro assay, IonWorks Quattro (IWQ) population patch-clamp. To be noted: HEK 293 cells stably transfected with Nav 1.5; 26th pulse to -20 mV. Background: The patch-clamp technique gives a direct electrical read-out from membranes.

What is called IC50 is the point on the concentration scale where inhibition reaches its midpoint. As a reminder, the inhibition is the drop in the measured response relative to a control, in per cent.

Sequence of Nav 1.5 (Q14524 whole entry): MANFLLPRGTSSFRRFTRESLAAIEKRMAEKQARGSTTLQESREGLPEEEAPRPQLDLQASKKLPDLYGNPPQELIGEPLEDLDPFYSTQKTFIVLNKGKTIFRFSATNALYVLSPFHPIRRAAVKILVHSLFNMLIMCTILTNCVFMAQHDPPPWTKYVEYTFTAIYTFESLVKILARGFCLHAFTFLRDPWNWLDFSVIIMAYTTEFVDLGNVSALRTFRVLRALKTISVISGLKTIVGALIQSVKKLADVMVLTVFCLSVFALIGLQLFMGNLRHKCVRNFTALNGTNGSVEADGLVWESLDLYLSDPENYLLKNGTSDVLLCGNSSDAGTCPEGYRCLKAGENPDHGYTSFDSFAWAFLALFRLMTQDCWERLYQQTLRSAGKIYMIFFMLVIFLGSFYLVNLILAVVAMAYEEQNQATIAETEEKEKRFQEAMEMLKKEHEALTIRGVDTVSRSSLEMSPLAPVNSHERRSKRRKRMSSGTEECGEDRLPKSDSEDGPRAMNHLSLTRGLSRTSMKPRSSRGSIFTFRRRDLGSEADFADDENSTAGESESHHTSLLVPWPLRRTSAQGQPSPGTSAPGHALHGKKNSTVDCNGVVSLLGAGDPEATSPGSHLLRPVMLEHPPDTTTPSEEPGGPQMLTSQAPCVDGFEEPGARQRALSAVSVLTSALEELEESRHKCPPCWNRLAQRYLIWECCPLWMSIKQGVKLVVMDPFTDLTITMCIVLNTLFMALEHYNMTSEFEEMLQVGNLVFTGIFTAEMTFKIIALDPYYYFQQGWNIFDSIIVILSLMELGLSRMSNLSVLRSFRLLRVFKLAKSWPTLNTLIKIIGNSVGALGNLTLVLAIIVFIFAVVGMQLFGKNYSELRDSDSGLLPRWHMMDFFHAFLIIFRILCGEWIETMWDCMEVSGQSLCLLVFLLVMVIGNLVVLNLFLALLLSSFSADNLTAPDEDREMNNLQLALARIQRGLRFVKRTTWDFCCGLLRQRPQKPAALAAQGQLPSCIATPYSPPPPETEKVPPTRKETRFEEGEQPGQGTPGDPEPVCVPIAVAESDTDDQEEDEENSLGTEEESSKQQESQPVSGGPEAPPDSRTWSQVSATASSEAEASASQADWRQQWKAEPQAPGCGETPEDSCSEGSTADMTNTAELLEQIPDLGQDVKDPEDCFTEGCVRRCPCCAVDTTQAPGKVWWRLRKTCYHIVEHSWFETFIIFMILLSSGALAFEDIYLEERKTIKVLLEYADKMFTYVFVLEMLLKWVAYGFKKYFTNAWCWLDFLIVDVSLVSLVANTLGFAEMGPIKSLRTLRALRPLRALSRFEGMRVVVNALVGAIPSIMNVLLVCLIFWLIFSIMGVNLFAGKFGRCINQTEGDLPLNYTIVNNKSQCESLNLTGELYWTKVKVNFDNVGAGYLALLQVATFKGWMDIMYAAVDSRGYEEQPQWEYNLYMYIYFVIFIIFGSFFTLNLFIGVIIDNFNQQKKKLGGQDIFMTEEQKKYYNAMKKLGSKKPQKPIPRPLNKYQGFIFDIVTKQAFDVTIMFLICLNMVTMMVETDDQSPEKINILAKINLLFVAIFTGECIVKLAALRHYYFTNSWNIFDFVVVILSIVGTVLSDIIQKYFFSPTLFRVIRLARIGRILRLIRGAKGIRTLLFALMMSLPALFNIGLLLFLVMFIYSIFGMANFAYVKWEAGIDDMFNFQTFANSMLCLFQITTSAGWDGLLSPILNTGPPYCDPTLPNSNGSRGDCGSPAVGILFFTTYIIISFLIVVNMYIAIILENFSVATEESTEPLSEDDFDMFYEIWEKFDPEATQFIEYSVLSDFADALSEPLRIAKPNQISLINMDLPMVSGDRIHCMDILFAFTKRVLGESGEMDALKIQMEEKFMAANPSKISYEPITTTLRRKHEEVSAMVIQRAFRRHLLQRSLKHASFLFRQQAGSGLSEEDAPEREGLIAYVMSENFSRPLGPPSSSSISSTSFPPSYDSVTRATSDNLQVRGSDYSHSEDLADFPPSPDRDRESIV
T1 sequence (Q15858 whole entry): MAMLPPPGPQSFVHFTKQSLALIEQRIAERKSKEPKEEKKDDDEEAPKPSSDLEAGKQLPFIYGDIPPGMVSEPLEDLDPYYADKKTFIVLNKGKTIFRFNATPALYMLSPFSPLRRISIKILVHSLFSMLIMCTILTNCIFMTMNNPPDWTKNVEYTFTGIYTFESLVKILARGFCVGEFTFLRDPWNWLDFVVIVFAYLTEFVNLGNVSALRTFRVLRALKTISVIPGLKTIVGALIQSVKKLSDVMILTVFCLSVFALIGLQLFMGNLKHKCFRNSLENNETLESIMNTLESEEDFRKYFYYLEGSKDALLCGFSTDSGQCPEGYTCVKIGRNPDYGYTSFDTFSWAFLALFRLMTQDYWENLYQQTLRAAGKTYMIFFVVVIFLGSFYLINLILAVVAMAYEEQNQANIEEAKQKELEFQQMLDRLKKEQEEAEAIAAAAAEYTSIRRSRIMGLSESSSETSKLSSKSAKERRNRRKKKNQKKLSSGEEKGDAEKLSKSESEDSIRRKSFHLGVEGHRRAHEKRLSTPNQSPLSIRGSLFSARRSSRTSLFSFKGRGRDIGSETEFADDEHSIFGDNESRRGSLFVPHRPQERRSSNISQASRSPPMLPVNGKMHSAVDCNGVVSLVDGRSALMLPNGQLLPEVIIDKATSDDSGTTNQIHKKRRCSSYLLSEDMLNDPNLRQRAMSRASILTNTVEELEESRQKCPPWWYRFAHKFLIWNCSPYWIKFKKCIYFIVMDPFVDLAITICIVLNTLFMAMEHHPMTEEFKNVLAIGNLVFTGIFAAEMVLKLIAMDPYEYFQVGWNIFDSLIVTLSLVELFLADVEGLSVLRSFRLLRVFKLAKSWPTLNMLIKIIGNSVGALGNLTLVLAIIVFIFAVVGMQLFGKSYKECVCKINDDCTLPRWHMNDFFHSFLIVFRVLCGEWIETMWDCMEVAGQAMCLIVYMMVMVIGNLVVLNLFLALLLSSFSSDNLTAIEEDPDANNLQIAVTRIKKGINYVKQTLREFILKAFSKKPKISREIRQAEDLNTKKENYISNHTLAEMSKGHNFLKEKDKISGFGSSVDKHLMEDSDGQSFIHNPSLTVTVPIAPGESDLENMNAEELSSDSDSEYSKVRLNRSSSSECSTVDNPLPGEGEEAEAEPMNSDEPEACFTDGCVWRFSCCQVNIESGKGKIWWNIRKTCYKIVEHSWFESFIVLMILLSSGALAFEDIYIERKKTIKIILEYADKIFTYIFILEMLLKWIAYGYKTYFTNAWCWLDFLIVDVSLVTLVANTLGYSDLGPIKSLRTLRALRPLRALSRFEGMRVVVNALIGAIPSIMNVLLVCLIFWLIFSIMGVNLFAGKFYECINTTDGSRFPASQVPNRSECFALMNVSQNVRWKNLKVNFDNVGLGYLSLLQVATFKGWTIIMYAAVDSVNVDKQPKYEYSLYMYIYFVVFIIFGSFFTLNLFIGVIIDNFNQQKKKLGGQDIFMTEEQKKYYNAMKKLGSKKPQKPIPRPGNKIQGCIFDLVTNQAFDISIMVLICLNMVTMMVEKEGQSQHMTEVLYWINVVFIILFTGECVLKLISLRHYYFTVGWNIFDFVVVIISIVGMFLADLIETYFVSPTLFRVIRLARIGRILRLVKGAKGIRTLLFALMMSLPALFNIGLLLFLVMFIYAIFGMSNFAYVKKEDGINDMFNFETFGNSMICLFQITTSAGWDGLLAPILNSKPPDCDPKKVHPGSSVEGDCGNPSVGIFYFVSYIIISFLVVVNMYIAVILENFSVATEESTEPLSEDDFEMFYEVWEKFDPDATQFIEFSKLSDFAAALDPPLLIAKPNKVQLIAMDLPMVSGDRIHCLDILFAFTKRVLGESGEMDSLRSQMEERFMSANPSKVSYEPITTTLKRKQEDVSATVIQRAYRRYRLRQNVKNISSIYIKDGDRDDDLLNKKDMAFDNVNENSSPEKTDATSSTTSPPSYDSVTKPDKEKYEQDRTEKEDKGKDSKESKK

Consider `O=S(=O)(Nc1cccnn1)c1ccc2c(c1)OCCN2c1ccc(C(F)(F)F)cc1Cl` [Example 27, 4-(2-Chloro-4-(Trifluoromethyl)Phenyl)-N-(Pyridazin-3-Yl)-3,4-Dihydro-2H-Benzo[B][1,4]Oxazine-7-Sulfonamide], for which the IC50 was 10700 nM on Nav 1.7 [1], 1250 nM at Nav 1.7 [2] and above 10000 nM at Nav 1.5.
Regarding `N#Cc1cc(C(F)(F)F)ccc1N1CCOc2cc(S(=O)(=O)Nc3ccno3)ccc21` [Example 91, 4-(2-Cyano-4-(Trifluoromethyl)Phenyl)-N-(Isoxazol-5-Yl)-3,4-Dihydro-2H-Benzo[B][1,4]Oxazine-7-Sulfonamide], the values for the IC50 on Nav 1.7 [1], against Nav 1.7 [2] and against Nav 1.5 were 9210 nM, 3640 nM and above 10000 nM, respectively.
The corresponding values for `O=S(=O)(Nc1nccs1)c1ccc2c(c1)OCCN2c1cccc2cccnc12` [Example 166, 4-(Quinolin-8-Yl)-N-(Thiazol-2-Yl)-3,4-Dihydro-2H-Benzo[B][1,4]Oxazine-7-Sulfonamide 2,2,2-Trifluoroacetate] are 11100 nM, 683 nM and above 10000 nM.
The matching figures for `O=S(=O)(Nc1nccs1)c1ccc2c(c1)OCCN2c1ccc(C(F)(F)F)cc1CCO` [Example 211, 4-(2-(2-Hydroxyethyl)-4-(Trifluoromethyl)Phenyl)-N-(Thiazol-2-Yl)-3,4-Dihydro-2H-Benzo[B][1,4]Oxazine-7-Sulfonamide]: 229 nM, 5.5 nM and 471 nM.
With `O=S(=O)(Nc1nccs1)c1ccc2c(c1)OCCN2c1ccc(C(F)(F)F)cc1-c1ccncc1` [Example 53, 4-(2-(Pyridin-4-Yl)-4-(Trifluoromethyl)Phenyl)-N-(Thiazol-2-Yl)-3,4-Dihydro-2H-Benzo[B][1,4]Oxazine-7-Sulfonamide 2,2,2-Trifluoroacetate], the 50% inhibitory concentration (IC50) against Nav 1.7 [1] stood at 203 nM; against Nav 1.7 [2] it was 22.5 nM; against Nav 1.5, 554 nM.
For `O=S(=O)(Nc1nccs1)c1ccc2c(c1)OCCN2c1ccc2scnc2c1` [Example 70, 4-(Benzo[D]Thiazol-5-Yl)-N-(Thiazol-2-Yl)-3,4-Dihydro-2H-Benzo[B][1,4]Oxazine-7-Sulfonamide 2,2,2-Trifluoroacetate], the half-maximal inhibitory concentration (IC50) is 5690 nM against Nav 1.7 [1], 638 nM against Nav 1.7 [2] and above 10000 nM against Nav 1.5.
The corresponding values for `COc1cc(Cl)ccc1N1CCOc2cc(S(=O)(=O)Nc3nccs3)ccc21` [Example 186, 4-(4-Chloro-2-Methoxyphenyl)-N-(Thiazol-2-Yl)-3,4-Dihydro-2H-Benzo[B][1,4]Oxazine-7-Sulfonamide] are 67.6 nM, 11.5 nM and 7720 nM.
For the compound `C[C@H]1COc2cc(S(=O)(=O)Nc3nccs3)ccc2N1c1ccc(C(F)(F)F)cc1C#N` (single isomer, unassigned) [Example 98], the values for the half-maximal inhibitory concentration (IC50) against Nav 1.7 [1], on Nav 1.7 [2] and against Nav 1.5 were 3430 nM, 996 nM and above 10000 nM, respectively.
With `Cc1ccc(N2CCOc3cc(S(=O)(=O)Nc4nccs4)ccc32)cc1C#N` [Example 115, 4-(3-Cyano-4-methylphenyl)-N-(thiazol-2-yl)-3,4-dihydro-2H-benzo[b][1,4]oxazine-7-sulfonamide], the IC50 on Nav 1.7 [1] was determined as 5570 nM; at Nav 1.7 [2], 1280 nM; against Nav 1.5, 7730 nM.
Turning to `Cc1ccc(C(C)C)c(N2CCOc3cc(S(=O)(=O)Nc4nccs4)ccc32)c1` [Example 168, 4-(2-Isopropyl-5-Methylphenyl)-N-(Thiazol-2-Yl)-3,4-Dihydro-2H-Benzo[B][1,4]Oxazine-7-Sulfonamide 2,2,2-Trifluoroacetate], the IC50 against Nav 1.7 [1] is 3250 nM; at Nav 1.7 [2], 643 nM; against Nav 1.5, above 10000 nM.
For the compound `Cc1ccc(C#N)c(N2CCOc3cc(S(=O)(=O)Nc4nccs4)ccc32)n1` [Example 135, 4-(3-Cyano-6-methylpyridin-2-yl)-N-(thiazol-2-yl)-3,4-dihydro-2H-benzo[b][1,4]oxazine-7-sulfonamide], the inhibition at 4.9 µM on Nav 1.7 [1] is 22.6%. The IC50 against Nav 1.7 [2] was 2680 nM; against Nav 1.5, above 10000 nM.
`COCCOc1ccc(N2CCOc3cc(S(=O)(=O)Nc4ncns4)ccc32)cc1` [Example 39, 4-(4-(2-Methoxyethoxy)Phenyl)-N-(1,2,4-Thiadiazol-5-Yl)-3,4-Dihydro-2H-Benzo[B][1,4]Oxazine-7-Sulfonamide]: the IC50 on Nav 1.7 [1] is 9220 nM; on Nav 1.7 [2] it was 333 nM; at Nav 1.5 it was above 10000 nM.
In the case of `Cc1cc(C#N)cc(N2CCOc3cc(S(=O)(=O)Nc4nccs4)ccc32)c1` [Example 124, 4-(3-Cyano-5-methylphenyl)-N-(thiazol-2-yl)-3,4-dihydro-2H-benzo[b][1,4]oxazine-7-sulfonamide], the figures for the 50% inhibitory concentration (IC50) against Nav 1.7 [1], against Nav 1.7 [2] and against Nav 1.5 were 2690 nM, 160 nM and 2330 nM, respectively.
As to `O=S(=O)(Nc1ncccn1)c1ccc2c(c1)OCCN2c1ccc(C(F)(F)F)cc1Cl` [Example 16, 4-(2-Chloro-4-(Trifluoromethyl)Phenyl)-N-(Pyrimidin-2-Yl)-3,4-Dihydro-2H-Benzo[B][1,4]Oxazine-7-Sulfonamide], the values for the IC50 against Nav 1.7 [1], against Nav 1.7 [2] and against Nav 1.5 were 11900 nM, 1860 nM and above 10000 nM, respectively.
In the case of `O=S(=O)(Nc1nccs1)c1ccc2c(c1)OCCN2c1ncc(F)cc1F` [Example 136, 4-(3,5-Difluoropyridin-2-yl)-N-(thiazol-2-yl)-3,4-dihydro-2H-benzo[b][1,4]oxazine-7-sulfonamide], the inhibition at 4.9 µM on Nav 1.7 [1] was 27.4%. Also, the half-inhibitory concentration (IC50) against Nav 1.7 [2] is 2980 nM; on Nav 1.5, above 10000 nM.
As for `O=C(Oc1ccc([N+](=O)[O-])cc1)N1CCOc2cc(S(=O)(=O)Nc3nccs3)ccc21` [Example 197, 4-nitrophenyl 7-(N-(thiazol-2-yl)sulfamoyl)-2H-benzo[b][1,4]oxazine-4(3 H)-carboxylate], the inhibition at 4.9 µM on Nav 1.7 [1] came out at 27.8%. Besides, the IC50 at Nav 1.7 [2] was 2530 nM; at Nav 1.5 it was above 10000 nM.
For `O=S(=O)(Nc1ncns1)c1ccc2c(c1)OCC(c1ccccc1)N2c1ccc(C(F)(F)F)cc1` (stereo not drawn) [Example 34, 3-Phenyl-N-(1,2,4-Thiadiazol-5-Yl)-4-(4-(Trifluoromethyl)Phenyl)-3,4-Dihydro-2H-Benzo[B][1,4]Oxazine-7-Sulfonamide], the values for the IC50 against Nav 1.7 [1], against Nav 1.7 [2] and against Nav 1.5 were 3460 nM, 2450 nM and above 10000 nM, respectively.
For the compound `N#Cc1ccccc1N1CCOc2cc(S(=O)(=O)Nc3nccs3)ccc21` [Example 58, 4-(2-Cyanophenyl)-N-(Thiazol-2-Yl)-3,4-Dihydro-2H-Benzo[B][1,4]Oxazine-7-Sulfonamide 2,2,2-Trifluoroacetate], the values for the half-inhibitory concentration (IC50) at Nav 1.7 [1], against Nav 1.7 [2] and at Nav 1.5 were 2550 nM, 225 nM and 6300 nM, respectively.
In the case of `N#Cc1ccc(N2CCOc3cc(S(=O)(=O)Nc4nccs4)ccc32)c(Cl)c1` [Example 191, 4-(2-Chloro-4-Cyanophenyl)-N-(Thiazol-2-Yl)-3,4-Dihydro-2H-Benzo[B][1,4]Oxazine-7-Sulfonamide], the IC50 at Nav 1.7 [1] was 976 nM; on Nav 1.7 [2], 140 nM; against Nav 1.5, above 10000 nM.
Consider `Cc1cc(C(F)(F)F)ccc1N1CCOc2cc(S(=O)(=O)Nc3nccs3)ccc21` [Example 196, 4-(2-Methyl-4-(Trifluoromethyl)Phenyl)-N-(Thiazol-2-Yl)-3,4-Dihydro-2H-Benzo[B][1,4]Oxazine-7-Sulfonamide], for which the 50% inhibitory concentration (IC50) against Nav 1.7 [1] came out at 898 nM; at Nav 1.7 [2], 396 nM; against Nav 1.5, 5700 nM.
On to `O=S(=O)(Nc1nccs1)c1ccc2c(c1)OCCN2c1cc(Cl)ccc1Cl` [Example 180, 4-(2,5-Dichlorophenyl)-N-(Thiazol-2-Yl)-3,4-Dihydro-2H-Benzo[B][1,4]Oxazine-7-Sulfonamide 2,2,2-Trifluoroacetate], for which the IC50 against Nav 1.7 [1] came to 850 nM; against Nav 1.7 [2], 104 nM; against Nav 1.5 it was 6940 nM.
In the case of `Cc1cc(N2CCOc3cc(S(=O)(=O)Nc4nccs4)ccc32)ccc1Cl` [Example 156, 4-(4-Chloro-3-Methylphenyl)-N-(Thiazol-2-Yl)-3,4-Dihydro-2H-Benzo[B][1,4]Oxazine-7-Sulfonamide 2,2,2-Trifluoroacetate], the values for the IC50 at Nav 1.7 [1], against Nav 1.7 [2] and against Nav 1.5 were 2600 nM, 2280 nM and 3930 nM, respectively.
On to `Cc1cc(N2CCOc3cc(S(=O)(=O)Nc4nccs4)ccc32)ccc1C#N` [Example 116, 4-(4-Cyano-3-methylphenyl)-N-(thiazol-2-yl)-3,4-dihydro-2H-benzo[b][1,4]oxazine-7-sulfonamide], for which the half-maximal inhibitory concentration (IC50) on Nav 1.7 [1] was determined as 4950 nM; against Nav 1.7 [2], 841 nM; against Nav 1.5, 7360 nM.
As for `N#Cc1cc(C(F)(F)F)ccc1N1CCOc2cc(S(=O)(=O)Nc3ccncn3)ccc21` [Example 89, 4-(2-Cyano-4-(Trifluoromethyl)Phenyl)-N-(Pyrimidin-4-Yl)-3,4-Dihydro-2H-Benzo[B][1,4]Oxazine-7-Sulfonamide], the half-inhibitory concentration (IC50) against Nav 1.7 [1] was 464 nM; on Nav 1.7 [2], 28.5 nM; on Nav 1.5, 1140 nM.

The values are drawn from patent US9346798B2, “Dihydrobenzoxazine and tetrahydroquinoxaline sodium channel inhibitors” (AMGEN INC., priority 2012, dated 2016).
